In patent publication US8283312B2, “Compositions and methods for modulating body weight and treating obesity-related disorders” (The Research Foundation of State University of New York, priority 2005, dated 2012):
Where two headings read alike, the source gives them in different places. Where no end group is shown, it is not given here. The star is where a group is joined. Octanoyl = CCCCCCCC(=O)*

Legend:
[1] = system: mice; settings: cited from earlier work
[2] = system: obese subjects; settings: 12 obese subjects, as compared to 12 lean subjects; cited from earlier work
[3] = system: RYGB rats; experiment: Food intake and body weight of RYGB rats given test substance via implanted intraperitoneal pump; type: in vivo, rat
Description: Daily Measurements: Postoperatively, daily body weight (BW) and caloric intake were measured each morning. The PF group was given the average food intake consumed the previous day by the RYGB group. Daily changes in BW, plotted every three day, are shown in FIG. 2 and the mean change per post-operative time periods are expressed in Table 1 using the same construct as earlier reported in our previous study (6).
A pump (Model 2002, Alza Corp. Palo Alto, Calif.) was implanted i.p. in each of 5 RYGB rats thirty days after RYGB. The pump was loaded with either the PYY receptor antagonist, B11E0246 (TOCRIS, Ellisville, Mo.), or a control solution (DMSO), and released its ingredient at the rate of about 8.3 μl/day (360 nm B11E0246/Kg/day). Food intake was measured as described above.
(§1) In a second experiment, a pump was implanted i.p. in each of 5 RYGB rats thirty days after RYGB. The pump was loaded with either ghrelin, or a control solution (DMSO), and released its ingredient at the rate of 8.3 μl/day (60 ng ghrelin/Kg/day). Food intake was measured as described above.
as §1, with “third” for “second”, “either a combination of the PYY receptor antagonist B11E0246 and” for “either”, “(DMSO). The pump” for “(DMSO), and”, “(360 nm B11E0246/Kg/day and 60” for “(60”

[4] = physiological levels of ghrelin (60 ng/Kg/day) alone, i.p. pump, FIG. 7

Compound: PYY(3-36): functional analog of PYY; peptide consisting of amino acid 3 to 36 of PYY
- food intake ([1]; freely feeding mice): unchanged
- food intake ([1]; single intraperitoneal injection, 24 h fasted mice): significant reduction of food intake for 24 h but not for 48 h
- decrease of ad libitum food intake per meal [2]: 33%

Compound: ghrelin: peptide of 28 amino acids, in which the serine 3 residue is n-octanoylated; gut hormone that stimulates food intake (GSS(Octanoyl)FLSPEHQRVQQRKESKKPPAKLQPR; UniProt Q9UBU3 24-51, looked up)
- body weight [3, 4]: did not significantly increase food intake or body weight
- food intake [3, 4]: did not significantly increase food intake or body weight

Compound: N=C(N)NCCC[C@H](NC(=O)CC1(CC(=O)N2CCN(C3c4ccccc4NC(=O)c4ccccc43)CC2)CCCC1)C(=O)NCCn1c(=O)n(-c2ccccc2)n(-c2ccccc2)c1=O (stereo partly drawn) [B11E0246]
- daily and cumulative food intake ([3]; i.p. pump implanted thirty days after RYGB, 360 nm B11E0246/Kg/day, vs control solution (DMSO), FIG. 6): increased daily and cumulative food intake
